# Assays:
# PRMT5 [1] = target: T1, PRMT5 (Homo sapiens, UniProt O14744); assay: PRMT5 biochemical IC50 assay with no cofactor; details: PRMT5, no cofactor
# T1 construct: purchased Viva (custom protein)
# From the text: Table 1 indicates IC50 values (μM) against PRMT5 for exemplary compounds in the presence of SAM as cofactor, with no cofactor, and with MTA as cofactor, respectively (columns 4-6). […] Ki values can be calculated from the IC50 values as described in the Examples section. As detailed in the Examples section, for the assay performed in the presence of SAM, IC50=Ki×1.5 (Ki=IC50/1.5).
# PRMT5 [2] = target: T1, PRMT5; assay: PRMT5 biochemical IC50 assay with SAM as cofactor; details: PRMT5, SAM as cofactor; read-out: SAM IC50
# [3] = system: HAP1 MTAP-deleted cell line; assay: Viability assay, MTAP-deleted cell line; type: cell-based; details: Homo sapiens, read-out: HAP1 MTAP deleted viability
# From the text: Table 1 additionally indicates IC50 values in a viability assay for the MTAP-deleted cell line (column 10), indicating the effect of treatment with compound on cell survival.
# [4] = system: HAP1 MTAP-intact cell line; assay: SDMA in-cell western assay, HAP1 MTAP-intact; type: cell-based; details: Homo sapiens, HAP1, SDMA in-cell western, HAP1 MTAP-intact; read-out: MTAP HAP1 intact IC50
# In short: (§1)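 MTAP-null vs endogenous-MTAP HAP1 isogenic cells; in-cell western SDMA readout; IC50 per line.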
# [5] = system: HAP1 MTAP-deleted cell line; assay: SDMA in-cell western assay, HAP1 MTAP-deleted; type: cell-based; details: for IC50: HAP1 MTAP-deleted; for MTAP intact/deleted ratio: IC50 ratio HAP1 MTAP-intact / HAP1 MTAP-deleted
# In short: as §1
# PRMT5 [6] = target: T1, PRMT5; assay: PRMT5 biochemical IC50 assay with MTA as cofactor; details: PRMT5, MTA as cofactor; read-out: MTA IC50
# [7] = HAP1, viability IC50, MTAP-deleted cell line
# [8] = Homo sapiens, HAP1, SDMA in-cell western, read-out: HAP 1 MTAP deleted IC50
# [9] = HAP1, viability assay, MTAP-deleted cell line
# [10] = Homo sapiens, HAP1, SDMA in-cell western, read-out: HAP1 MTAP deleted IC50
# [11] = HAP1, viability assay, HAP1 MTAP-deleted
# [12] = read-out: No Cofactor/ rel IC50
# [13] = HAP1, viability, HAP1 MTAP-deleted cell line
# T1 sequence (O14744 whole entry): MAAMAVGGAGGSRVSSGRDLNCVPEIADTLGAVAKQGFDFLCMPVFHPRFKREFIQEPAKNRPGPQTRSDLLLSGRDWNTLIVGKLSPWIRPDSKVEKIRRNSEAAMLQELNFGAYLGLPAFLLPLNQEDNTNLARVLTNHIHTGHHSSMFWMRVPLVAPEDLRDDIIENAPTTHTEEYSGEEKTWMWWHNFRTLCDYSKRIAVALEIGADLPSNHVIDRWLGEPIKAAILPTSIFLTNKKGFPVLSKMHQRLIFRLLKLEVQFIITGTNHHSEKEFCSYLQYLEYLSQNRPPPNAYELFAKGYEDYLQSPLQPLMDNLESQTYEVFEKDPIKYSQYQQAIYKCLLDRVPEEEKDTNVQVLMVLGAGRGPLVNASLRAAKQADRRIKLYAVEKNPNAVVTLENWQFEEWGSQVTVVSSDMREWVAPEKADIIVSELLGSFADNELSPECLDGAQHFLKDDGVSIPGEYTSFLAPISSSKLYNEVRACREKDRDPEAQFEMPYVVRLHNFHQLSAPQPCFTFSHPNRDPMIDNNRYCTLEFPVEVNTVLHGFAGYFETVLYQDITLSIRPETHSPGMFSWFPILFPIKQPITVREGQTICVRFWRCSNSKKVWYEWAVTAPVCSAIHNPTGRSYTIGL
# T1 sequence (Q9BQA1 whole entry partner): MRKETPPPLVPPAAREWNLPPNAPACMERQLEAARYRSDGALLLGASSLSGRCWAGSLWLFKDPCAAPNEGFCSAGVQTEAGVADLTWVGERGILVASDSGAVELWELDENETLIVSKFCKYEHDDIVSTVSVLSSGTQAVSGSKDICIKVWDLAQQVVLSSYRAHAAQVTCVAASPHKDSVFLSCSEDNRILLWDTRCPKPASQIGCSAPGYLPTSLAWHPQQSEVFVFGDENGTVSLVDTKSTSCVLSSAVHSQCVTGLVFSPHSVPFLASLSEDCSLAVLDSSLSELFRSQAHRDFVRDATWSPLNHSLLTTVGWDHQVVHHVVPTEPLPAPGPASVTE
IC50 (PRMT5 [1]; read-out: No Cofactor/rel IC50) [µM],IC50 (PRMT5 [2]) [µM],IC50 [4] [µM],"IC50 [5, 8] [µM]",IC50 (PRMT5 [6]) [µM],"IC50 [5, 10] [µM]",IC50 (PRMT5 [1]; [12]) [µM],"IC50 ([5]; SDMA in-cell western, read-out: HAP1 MTAP deleted IC50) [µM]",SMILES,"IC50 [3, 7] [µM]",MTAP intact/deleted ratio ([5]; SDMA in-cell western),"IC50 [3, 9] [µM]","IC50 [3, 11] [µM]","IC50 [3, 13] [µM]"
< 0.05,< 0.05,0.1 to 1,< 0.1,< 0.05,–,–,–,"CCc1cc(NC(=O)C(=O)N2C[C@@H](C)CC[C@@H]2c2ccc3[nH]ncc3c2)cnc1N (single isomer, unassigned) [Compound 589]",< 1,A (an IC50 ratio greater than or equal to 10 fold),–,–,–
0.05 to 0.5,0.05 to 0.5,> 1,–,< 0.05,< 0.1,–,–,"C[C@@H]1CC[C@@H](c2cccc(N(C)C)c2)N(C(=O)C(=O)Nc2cncc(C(N)=O)c2)C1 (single isomer, unassigned) [Compound 375]",–,A (an IC50 ratio greater than or equal to 10 fold),1 to 10,–,–
> 0.5,> 0.5,> 1,–,> 0.5,> 1,–,–,"CCc1cc(NC(=O)C(=O)N2C[C@H](C)CC[C@H]2c2ccc(C)nc2)cnc1N (single isomer, unassigned) [Compound 756]",–,B (an IC50 ratio greater than or equal to 3 fold but lower than 10 fold),–,> 10,–
0.05 to 0.5,0.05 to 0.5,> 1,< 0.1,< 0.05,–,–,–,"C[C@@H]1CC[C@@H](c2ccc3[nH]ncc3c2F)N(C(=O)C(=O)Nc2cncc(C(N)=O)c2)C1 (single isomer, unassigned) [Compound 612]",1 to 10,A (an IC50 ratio greater than or equal to 10 fold),–,–,–
> 0.5,> 0.5,> 1,–,> 0.5,> 1,–,–,"Cc1cc(NC(=O)C(=O)N2C[C@@H](C)CC[C@@H]2[C@H]2CC[C@@H](C(C)(C)C)CC2)cnc1N (single isomer, unassigned) [Compound 290]",–,C (an IC50 ratio of less than 3 fold),> 10,–,–
–,> 0.5,> 1,> 1,0.05 to 0.5,–,> 0.5,–,"CNC(=O)c1ccc([C@H]2CC[C@H](C)CN2C(=O)C(=O)Nc2cncc(C)c2)cc1 (racemic) [Compound 92, N-methyl-4-(5-methyl-1-(2-((5-methylpyridin-3-yl)amino)-2-oxoacetyl)piperidin-2-yl)benzamide]",–,C (an IC50 ratio of less than 3 fold),> 10,–,–
0.05 to 0.5,0.05 to 0.5,> 1,–,< 0.05,< 0.1,–,–,"Cc1cc(NC(=O)C(=O)N2C[C@H](C)CC[C@H]2[C@H]2CC[C@H](O)CC2)cnc1N (single isomer, unassigned) [Compound 431]",–,A (an IC50 ratio greater than or equal to 10 fold),1 to 10,–,–
–,0.05 to 0.5,0.1 to 1,< 0.1,< 0.05,–,< 0.05,–,"CCc1cc(NC(=O)C(=O)N2C[C@@H](C)CC[C@@H]2c2ccc(N3CCN(CC)CC3)c(C)c2)cnc1N (racemic) [Compound 1376, N-(6-Amino-5-ethyl-3-pyridyl)-2-oxo-2-[rac-(2R,5S)-2-[4-(4-ethylpiperazin-1-yl)-3-methyl-phenyl]-5-methyl-1-piperidyl]acetamide]",–,A (an IC50 ratio greater than or equal to 10 fold),–,–,< 1
> 0.5,> 0.5,> 1,–,0.05 to 0.5,–,–,> 1,"COc1ncc(NC(=O)C(=O)N2CCCCC2c2ccccc2)cc1C(N)=O (single isomer, unassigned) [Compound 199, 2-methoxy-5-(2-oxo-2-(2-phenylpiperidin-1-yl)acetamido)nicotinamide]",–,C (an IC50 ratio of less than 3 fold),> 10,–,–
0.05 to 0.5,0.05 to 0.5,> 1,< 0.1,< 0.05,–,–,–,"C[C@@H]1CC[C@@H](c2ccc(Cl)cc2)N(C(=O)C(=O)Nc2cncc(C(N)=O)c2)C1 (single isomer, unassigned) [Compound 570]",1 to 10,A (an IC50 ratio greater than or equal to 10 fold),–,–,–
> 0.5,> 0.5,> 1,> 1,> 0.5,–,–,–,"C[C@@H]1CC[C@@H](c2ccccn2)N(C(=O)C(=O)Nc2cncc(C(N)=O)c2)C1 (single isomer, unassigned) [Compound 578]",> 10,C (an IC50 ratio of less than 3 fold),–,–,–
–,0.05 to 0.5,0.1 to 1,< 0.1,< 0.05,–,< 0.05,–,"Cc1ncc(NC(=O)C(=O)N2C[C@@H](C)CC[C@@H]2c2ccc3sc(C4CCN(C)CC4)nc3c2)cc1C(F)(F)F [Compound 1300, 2-((2R,5)-5-methyl-2-(2-(1-methylpiperidin-4-yl)benzo[d]thiazol-5-yl)piperidin-1-yl)-N-(6-methyl-5-(trifluoromethyl)pyridin-3-yl)-2-oxoacetamide]",–,A (an IC50 ratio greater than or equal to 10 fold),–,–,< 1
0.05 to 0.5,< 0.05,> 1,–,< 0.05,< 0.1,–,–,"C[C@H]1C[C@H](C)[C@H](c2ccccc2)N(C(=O)C(=O)Nc2cncc(C(N)=O)c2)C1 (single isomer, unassigned) [Compound 267, 5-(2-(3,5-dimethyl-2-phenylpiperidin-1-yl)-2-oxoacetamido)nicotinamide]",–,A (an IC50 ratio greater than or equal to 10 fold),1 to 10,–,–
> 0.5,> 0.5,> 1,–,> 0.5,> 1,–,–,"C[C@@H]1CC[C@@H](C2CCC(F)(F)CC2)N(C(=O)C(=O)Nc2cncc(C(N)=O)c2)C1 (single isomer, unassigned) [Compound 486]",–,C (an IC50 ratio of less than 3 fold),> 10,–,–
< 0.05,0.05 to 0.5,> 1,–,< 0.05,< 0.1,–,–,"Cc1cc(NC(=O)C(=O)N2C[C@@H](C)CC[C@@H]2c2cc(F)cc(F)c2)cnc1N (single isomer, unassigned) [Compound 734, N-(6-amino-5-methylpyridin-3-yl)-2-(2-(3,5-difluorophenyl)-5-methylpiperidin-1-yl)-2-oxoacetamide]",–,A (an IC50 ratio greater than or equal to 10 fold),–,1 to 10,–
–,< 0.05,0.1 to 1,< 0.1,< 0.05,–,< 0.05,–,"CCc1cc(NC(=O)C(=O)N2C[C@@H](C)CC[C@@H]2c2ccc3sc(C4CCN(CC(F)F)CC4)nc3c2)cnc1N [Compound 1304, N-(6-amino-5-ethylpyridin-3-yl)-2-((2R,5S)-2-(2-(1-(2,2-difluoroethyl)piperidin-4-yl)benzo[d]thiazol-5-yl)-5-methylpiperidin-1-yl)-2-oxoacetamide]",–,A (an IC50 ratio greater than or equal to 10 fold),–,–,< 1
